This experiment addresses T1, soybean lipoxygenase (LOX) (Glycine max, UniProt P08170).
T1 construct: gene LOX1.1
T1 sequence (P08170 1-839): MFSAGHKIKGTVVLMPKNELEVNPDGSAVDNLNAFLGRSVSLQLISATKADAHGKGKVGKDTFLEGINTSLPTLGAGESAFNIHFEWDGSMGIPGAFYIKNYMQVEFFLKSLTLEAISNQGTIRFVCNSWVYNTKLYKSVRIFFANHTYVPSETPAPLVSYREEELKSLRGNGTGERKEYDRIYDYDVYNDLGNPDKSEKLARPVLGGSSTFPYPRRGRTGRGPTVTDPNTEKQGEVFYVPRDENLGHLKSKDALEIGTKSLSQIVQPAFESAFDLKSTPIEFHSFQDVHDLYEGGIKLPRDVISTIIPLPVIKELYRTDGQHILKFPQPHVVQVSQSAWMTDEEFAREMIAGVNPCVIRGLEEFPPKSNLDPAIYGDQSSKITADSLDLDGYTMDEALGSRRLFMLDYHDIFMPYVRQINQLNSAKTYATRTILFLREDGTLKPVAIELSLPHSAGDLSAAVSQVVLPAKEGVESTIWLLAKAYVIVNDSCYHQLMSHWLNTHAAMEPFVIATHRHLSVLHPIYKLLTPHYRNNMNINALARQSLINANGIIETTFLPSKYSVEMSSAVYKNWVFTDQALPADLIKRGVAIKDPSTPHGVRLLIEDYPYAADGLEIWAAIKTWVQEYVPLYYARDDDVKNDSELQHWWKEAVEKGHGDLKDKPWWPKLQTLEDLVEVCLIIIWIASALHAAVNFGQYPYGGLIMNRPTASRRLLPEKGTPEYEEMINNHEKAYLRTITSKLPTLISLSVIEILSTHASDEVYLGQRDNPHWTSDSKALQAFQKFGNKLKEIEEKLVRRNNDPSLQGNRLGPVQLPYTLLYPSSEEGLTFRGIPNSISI
Nature of the experiment: UV assay at […] nm, sodium linoleate oxidation, pH […]. In kind it is biochemical.

Structures are written as SMILES.

The IC50 is the concentration at which inhibition is half-maximal. A low value points to greater potency. In turn, `O=C1C(=NNC(=S)Nc2ccccc2)c2cc(F)ccc2N1CN1CCCCC1` [FMp] returned an IC50 of 54 µM.

In turn, `COc1ccc2c(c1)/C(=N/NC(=S)Nc1ccccc1)C(=O)N2` [M] displayed an IC50 of 60.5 µM.

Values taken from PMC9221192, “The Prophylactic and Multimodal Activity of Two Isatin Thiosemicarbazones against Alzheimer’s Disease In Vitro” (Brain Sciences, 2022).
